From DBAASP
Converted amounts (≈) assume the structure as drawn. Each block holds one compound with its values, some of them ahead of it.

Experiments:
Experiment in all cases: ≥ marks a high value that may be exact or a test limit, other limits are often not marked, values filed in µg/mL are converted to µM
Candida albicans = tested on: Candida albicans
[1] = tested on: Escherichia coli AX-128-3-3
[2] = tested on: Escherichia coli AX-054-1-3
[3] = tested on: Escherichia coli 0152 EIEC1
[4] = tested on: Escherichia coli AX-109-2-3
[5] = tested on: Escherichia coli O157:H7 282
[6] = tested on: Klebsiella pneumoniae KK3 9904
[7] = tested on: Escherichia coli O157:H7 CB6392
[8] = tested on: Staphylococcus epidermidis RP62A
[9] = tested on: Escherichia coli O26:H- CB6418
[10] = tested on: Escherichia coli O26:H11 3
[11] = tested on: Escherichia coli ATCC 25922
[12] = tested on: Enterococcus faecalis ATCC 29212
[13] = tested on: Escherichia coli ATCC 35218
Escherichia coli = tested on: Escherichia coli
Escherichia coli U7794 = tested on: Escherichia coli U7794
[14] = tested on: Proteus mirabilis ATCC 25933
[15] = tested on: Escherichia coli O157:H7 734/94
[16] = tested on: Enterobacter cloacae NHTCC 53001
[17] = tested on: Escherichia coli AX-100-3-1
[18] = tested on: Staphylococcus aureus NCTC 8325
[19] = tested on: Pseudomonas aeruginosa ATCC 27853
Escherichia coli U7103 = tested on: Escherichia coli U7103
[20] = tested on: Escherichia coli 0143 EIEC7
[21] = tested on: Escherichia coli O6:K15:H31 536
[22] = tested on: Escherichia coli 0112 EIEC26
[23] = tested on: Escherichia coli O157:H7 30328
[24] = tested on: Escherichia coli 0112 EIEC27
Staphylococcus aureus = tested on: Staphylococcus aureus
[25] = tested on: Escherichia coli 0164 EIEC6
Vibrio alginolyticus = tested on: Vibrio alginolyticus
[26] = tested on: Escherichia coli BCRC 10675
[27] = tested on: Streptococcus equinus BCRC 14729
[28] = tested on: Klebsiella oxytoca BCRC 13985
[29] = tested on: Staphylococcus xylosus BCRC 12930
Vibrio harveyi = tested on: Vibrio harveyi
[30] = tested on: Staphylococcus aureus BCRC 10781
[31] = tested on: Klebsiella aerogenes BCRC 10370
[32] = tested on: Yersinia enterocolitica BCRC 13999
[33] = tested on: Pseudomonas aeruginosa BCRC 10944
[34] = tested on: Staphylococcus aureus BCRC 10780
Streptococcus iniae = tested on: Streptococcus iniae
[35] = tested on: Vibrio parahaemolyticus BCRC 10806
[36] = tested on: Vibrio anguillarum serotype O1
[37] = tested on: Listeria monocytogenes BCRC 14845
Vibrio parahaemolyticus = tested on: Vibrio parahaemolyticus
[38] = tested on: Enterobacter cloacae BCRC 10401
[39] = tested on: Vibrio alginolyticus BCRC 12829
Lactococcus garvieae = tested on: Lactococcus garvieae
[40] = tested on: Staphylococcus aureus ATCC 6538
[41] = tested on: Shigella flexneri ATCC 203
[42] = tested on: Pseudomonas aeruginosa ATCC 9027
[43] = tested on: Staphylococcus epidermidis ATCC 12228
[44] = tested on: Micrococcus luteus ATCC 9341
[45] = tested on: Bacillus subtilis ATCC 6633
[46] = tested on: Escherichia coli ATCC 2592
[47] = tested on: Candida albicans ATCC 36232
[48] = tested on: Corynebacterium diphtheriae ATCC 8024

MIC (Candida albicans): 20 µM (≈ 53.3 µg/mL)
MIC [1]: 5 µM (≈ 13.3 µg/mL)
MIC [2]: 10 µM (≈ 26.7 µg/mL)
MIC [3]: 5 µM (≈ 13.3 µg/mL)
MIC [4]: 5 µM (≈ 13.3 µg/mL)
MIC [5]: 2.5 µM (≈ 6.66 µg/mL)
MIC [6]: 10 µM (≈ 26.7 µg/mL)
MIC [7]: 5 µM (≈ 13.3 µg/mL)
MIC [8]: 10 µM (≈ 26.7 µg/mL)
MIC [9]: 5 µM (≈ 13.3 µg/mL)
MIC [10]: 2.5 µM (≈ 6.66 µg/mL)
MIC [11]: 10 µM (≈ 26.7 µg/mL)
MIC [12]: 20 µM (≈ 53.3 µg/mL)
MIC [13]: 5 µM (≈ 13.3 µg/mL)
MIC (Escherichia coli): 5 µM (≈ 13.3 µg/mL)
MIC (Escherichia coli U7794): 5 µM (≈ 13.3 µg/mL)
MIC [14]: ≥ 100 µM
MIC [15]: 5 µM (≈ 13.3 µg/mL)
MIC [16]: 10 µM (≈ 26.7 µg/mL)
MIC [17]: 5 µM (≈ 13.3 µg/mL)
MIC [18]: 10 µM (≈ 26.7 µg/mL)
MIC [19]: 10 µM (≈ 26.7 µg/mL)
MIC (Escherichia coli U7103): 2.5 µM (≈ 6.66 µg/mL)
MIC [20]: 5 µM (≈ 13.3 µg/mL)
MIC [21]: 2.5 µM (≈ 6.66 µg/mL)
MIC [22]: 5 µM (≈ 13.3 µg/mL)
MIC [23]: 5 µM (≈ 13.3 µg/mL)
MIC [24]: 5 µM (≈ 13.3 µg/mL)
MIC (Staphylococcus aureus): 10 µM (≈ 26.7 µg/mL)
MIC [25]: 5 µM (≈ 13.3 µg/mL)
Compound: CC[C@H](C)[C@H](NC(=O)[C@H](CCCCN)NC(=O)[C@H](CS)NC(=O)[C@H](C)NC(=O)[C@@H](NC(=O)[C@H](Cc1ccccc1)NC(=O)CNC(=O)[C@H](CC(C)C)NC(=O)CNC(=O)[C@@H](NC(=O)[C@H](CCCCN)NC(=O)CNC(=O)[C@H](CC(C)C)NC(=O)[C@H](CCCCN)NC(=O)[C@H](CCCCN)NC(=O)[C@H](CC(C)C)NC(=O)[C@@H](NC(=O)[C@H](CO)NC(=O)[C@H](CC(C)C)NC(=O)[C@H](CCSC)NC(=O)[C@@H](N)CO)C(C)C)C(C)C)C(C)C)C(=O)N[C@@H](CC(N)=O)C(=O)N[C@@H](CCCCN)C(=O)N[C@@H](CCC(N)=O)C(=O)N[C@@H](CS)C(=O)O [SMLSVLKKLGKVGLGFVACKINKQC]

MIC (Vibrio alginolyticus): 3.35 µM (≈ 8 µg/mL)
MIC [26]: 3.35 µM (≈ 8 µg/mL)
MIC [27]: ≥ 53.6 µM
MIC [28]: 26.8 µM (≈ 64 µg/mL)
MIC [29]: 6.7 µM (≈ 16 µg/mL)
MIC (Vibrio harveyi): 1.68 µM (≈ 4 µg/mL)
MIC [30]: 6.7 µM (≈ 16 µg/mL)
MIC [31]: 6.7 µM (≈ 16 µg/mL)
MIC [32]: 13.4 µM (≈ 32 µg/mL)
MIC [33]: 6.7 µM (≈ 16 µg/mL)
MIC [34]: 6.7 µM (≈ 16 µg/mL)
MIC (Streptococcus iniae): 26.8 µM (≈ 64 µg/mL)
MIC [36]: 6.7 µM (≈ 16 µg/mL)
MIC [37]: 6.7 µM (≈ 16 µg/mL)
MIC [38]: 3.35 µM (≈ 8 µg/mL)
MIC [39]: 26.8 µM (≈ 64 µg/mL)
MIC (Lactococcus garvieae): 26.8 µM (≈ 64 µg/mL)
Compound: CC[C@H](C)[C@H](NC(=O)[C@@H](NC(=O)[C@H](Cc1ccccc1)NC(=O)[C@H](Cc1ccc(O)cc1)NC(=O)[C@H](CCCCN)NC(=O)[C@H](CCCCN)NC(=O)[C@H](CC(C)C)NC(=O)[C@H](C)NC(=O)[C@H](CC(N)=O)NC(=O)[C@H](C)NC(=O)CN)[C@@H](C)O)C(=O)N[C@@H](CC(C)C)C(=O)N[C@@H](CCCCN)C(=O)N[C@@H](CCCCN)C(=O)N[C@@H](Cc1ccccc1)C(=O)N[C@@H](Cc1ccccc1)C(=O)N[C@@H](CCCCN)C(=O)N[C@@H](CC(C)C)C(=O)N[C@@H](C)C(=O)N[C@@H](Cc1c[nH]c2ccccc12)C(=O)O [GANALKKYFTILKKFFKLAW]
MIC [35]: 3.35 µM (≈ 8 µg/mL)
MIC (Vibrio parahaemolyticus): 6.7 µM (≈ 16 µg/mL)

MIC [40]: 23.1 µM (≈ 30 µg/mL)
MIC [41]: 11.5 µM (≈ 15 µg/mL)
MIC [42]: 38.4 µM (≈ 50 µg/mL)
MIC [43]: 11.5 µM (≈ 15 µg/mL)
MIC [44]: 23.1 µM (≈ 30 µg/mL)
MIC [45]: 11.5 µM (≈ 15 µg/mL)
MIC (Staphylococcus aureus): > 76.9 µM
MIC [46]: 11.5 µM (≈ 15 µg/mL)
MIC [47]: 11.5 µM (≈ 15 µg/mL)
MIC [48]: 5.77 µM (≈ 7.49 µg/mL)
Compound: CC(C)[C@H](NC(=O)[C@H](CS)NC(=O)[C@@H](NC(=O)[C@H](CCCN=C(N)N)NC(=O)[C@H](CCCCN)NC(=O)CNC(=O)[C@H](CC(N)=O)NC(=O)[C@H](CS)NC(=O)[C@@H](N)Cc1ccc(O)cc1)C(C)C)C(=O)N[C@@H](CS)C(=O)N[C@@H](CCCN=C(N)N)C(N)=O [YCNGKRVCVCR]
